Results taken from US9175357B2, “Fragment ligated inhibitors selective for the polo box domain of PLK1” (UNIVERSITY OF SOUTH CAROLINA, priority 2011, dated 2015).
Numbered stars: 1 amine (or outer) side, 2 acyl side, 3 side chain; on linkers, the order of the positions; unused ones are H or OH. Square brackets hold non-standard residues; d marks the D form. Ends that are not written are not given here. Peptide text beside a SMILES is read from it. * marks the point of attachment. Quinoline(6-carbonyl) = O=C(c1ccc2ncccc2c1)*; X11 = O=C(c1cn(S(=O)(=O)c2ccccc2)c2ccccc12)*; X6 = Cc1c(C(=O)*)cc(-c2ccccc2)n1-c1ccccc1; NMe4Abz = CN(c1ccc(C(=O)[*:2])cc1)[*:1]; X3 = Cc1ccc(-c2cn(CC(=O)*)c(=O)cn2)cc1; pT = C[C@@H](OP(=O)(O)O)[C@H](N)C(=O)O; X14 = COc1cccc(-c2cc(C(=O)*)[nH]n2)c1; Benzoyl(4-OMe) = COc1ccc(C(=O)*)cc1; X7 = Cc1ccc2c(c1)N(CC(=O)*)C(=O)CO2; Benzoyl(4-Et) = CCc1ccc(C(=O)*)cc1; 1Naphthoyl = O=C(c1cccc2ccccc12)*; X2 = Cc1nc(-c2ccc(C(=O)*)cc2)no1; X10 = COc1cc(C(=O)*)cc2c1OCCO2; X15 = COc1ccc(C(=O)*)c2ccccc12; X8 = Cc1cc2c(SCC(=O)*)ncnc2s1; X1 = CCCCc1ccc(C(=O)*)cc1; X17 = CCCc1ccc(C(=O)*)cc1; X5 = CCCNc1ccc(C(=O)*)cc1; X9 = CCOc1ccc(C(=O)*)cc1; X4 = CSc1ccc(C(=O)*)cc1

Biological target: PLK1 PBD protein (residues 367-603) (Homo sapiens (Human), UniProt P53350)
Assay: Competitive fluorescence polarization (FP) binding assay, PLK1 PBD
Conditions: not given

Sequence of PLK1 PBD protein (residues 367-603) (P53350 367-603): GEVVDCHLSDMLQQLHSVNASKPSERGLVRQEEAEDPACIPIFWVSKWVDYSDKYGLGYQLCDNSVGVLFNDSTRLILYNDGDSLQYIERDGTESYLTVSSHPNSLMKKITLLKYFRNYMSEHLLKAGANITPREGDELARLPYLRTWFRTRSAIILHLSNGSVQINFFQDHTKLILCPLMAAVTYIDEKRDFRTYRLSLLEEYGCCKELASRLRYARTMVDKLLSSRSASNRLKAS

Row | Compound | IC50 [µM]
1 | Cc1cc2c(SCC(=O)N[C@@H](CO)C(=O)N[C@H](C(=O)N3CCC[C@H]3C(=O)N[C@@H](CC(N)=O)C(=O)NCC(=O)N[C@@H](CC(C)C)C(=O)O)[C@@H](C)OP(=O)(O)O)ncnc2s1 [compound 5595] (X8-S[pT]PNGL-OH) | 475
2 | Cc1c(C(=O)N[C@@H](CO)C(=O)N[C@H](C(=O)N2CCC[C@H]2C(=O)N[C@@H](CC(N)=O)C(=O)NCC(=O)N[C@@H](CC(C)C)C(=O)O)[C@@H](C)OP(=O)(O)O)cc(-c2ccccc2)n1-c1ccccc1 [compound 5599] (X6-S[pT]PNGL-OH) | 600
3 | CC(C)C[C@H](NC(=O)CNC(=O)[C@H](CC(N)=O)NC(=O)[C@@H]1CCCN1C(=O)[C@@H](NC(=O)[C@H](CO)NC(=O)c1ccc2ncccc2c1)[C@@H](C)OP(=O)(O)O)C(=O)O [compound 5601] ({Quinoline(6-carbonyl)}-S[pT]PNGL-OH) | 400
4 | Cc1ccc2c(c1)N(CC(=O)N[C@@H](CO)C(=O)N[C@H](C(=O)N1CCC[C@H]1C(=O)N[C@@H](CC(N)=O)C(=O)NCC(=O)N[C@@H](CC(C)C)C(=O)O)[C@@H](C)OP(=O)(O)O)C(=O)CO2 [compound 5594, 1G1-S[pT]PNGL] (X7-S[pT]PNGL-OH) | 350
5 | COc1cccc(-c2cc(C(=O)N[C@@H](CO)C(=O)N[C@H](C(=O)N3CCC[C@H]3C(=O)N[C@@H](CC(N)=O)C(=O)NCC(=O)N[C@@H](CC(C)C)C(=O)O)[C@@H](C)OP(=O)(O)O)[nH]n2)c1 [compound 5593] (X14-S[pT]PNGL-OH) | 380
6 | CC(C)C[C@H](NC(=O)CNC(=O)[C@H](CC(N)=O)NC(=O)[C@@H]1CCCN1C(=O)[C@@H](NC(=O)[C@H](CO)NC(=O)c1cn(S(=O)(=O)c2ccccc2)c2ccccc12)[C@@H](C)OP(=O)(O)O)C(=O)O [compound 5591] (X11-S[pT]PNGL-OH) | 375
7 | CC(C)C[C@H](NC(=O)CNC(=O)[C@H](CC(N)=O)NC(=O)[C@@H]1CCCN1C(=O)[C@@H](NC(=O)[C@H](CO)NC(=O)c1cccc2ccccc12)[C@@H](C)OP(=O)(O)O)C(=O)O [compound 5753] (1Naphthoyl-S[pT]PNGL-OH) | 104
8 | Cc1ccc(-c2cn(CC(=O)N[C@@H](CO)C(=O)N[C@H](C(=O)N3CCC[C@H]3C(=O)N[C@@H](CC(N)=O)C(=O)NCC(=O)N[C@@H](CC(C)C)C(=O)O)[C@@H](C)OP(=O)(O)O)c(=O)cn2)cc1 [compound 5603, 1G3-S[pT]PNGL] (X3-S[pT]PNGL-OH) | 250
9 | COc1ccc(C(=O)N[C@@H](CO)C(=O)N[C@H](C(=O)N2CCC[C@H]2C(=O)N[C@@H](CC(N)=O)C(=O)NCC(=O)N[C@@H](CC(C)C)C(=O)O)[C@@H](C)OP(=O)(O)O)c2ccccc12 [compound 5756, 2G1-S[pT]PNGL] (X15-S[pT]PNGL-OH) | 99
10 | Cc1nc(-c2ccc(C(=O)N[C@@H](CO)C(=O)N[C@H](C(=O)N3CCC[C@H]3C(=O)N[C@@H](CC(N)=O)C(=O)NCC(=O)N[C@@H](CC(C)C)C(=O)O)[C@@H](C)OP(=O)(O)O)cc2)no1 [compound 5598, 1G2-S[pT]PNGL] (X2-S[pT]PNGL-OH) | 320
11 | COc1cc(C(=O)N[C@@H](CO)C(=O)N[C@H](C(=O)N2CCC[C@H]2C(=O)N[C@@H](CC(N)=O)C(=O)NCC(=O)N[C@@H](CC(C)C)C(=O)O)[C@@H](C)OP(=O)(O)O)cc2c1OCCO2 [compound 5604] (X10-S[pT]PNGL-OH) | 300

Same assay, conditions: Table 1

Row | Compound | PLK1 PBD IC50
12 | CC(C)C[C@H](NC(=O)CNC(=O)[C@H](CC(N)=O)NC(=O)[C@@H]1CCCN1C(=O)[C@@H](NC(=O)[C@@H](N)CO)[C@@H](C)OP(=O)(O)O)C(=O)O [Sample No. 5714, S[pT]PNGL] (H-S[pT]PNGL-OH) | no detectable binding
13 | Ac-PLHSEA [compound 5744, Ac-PLHSEA] | weakly but detectably bound

Same assay, conditions: Table 1; read-out: PLK1 PBD IC50

Row | Compound | IC50 [µM]
14 | CC[C@H](C)[C@H](NC(=O)[C@H](C)NC(=O)[C@@H](NC(=O)[C@H](CO)NC(=O)[C@H](Cc1c[nH]cn1)NC(=O)[C@H](CC(C)C)NC(C)=O)[C@@H](C)OP(=O)(O)O)C(=O)O [Sample No. 5781, Ac-LHS[pT]AI, reference compound] (Ac-LHS[pT]AI-OH) | 5

Same assay, conditions: Table 2, FP assay; read-out: IC50

Row | Compound | IC50 [µM]
15 | CCCNc1ccc(C(=O)N[C@@H](CO)C(=O)N[C@H](C(=O)N2CCC[C@H]2C(=O)N[C@@H](CC(N)=O)C(=O)NCC(=O)N[C@@H](CC(C)C)C(=O)O)[C@@H](C)OP(=O)(O)O)cc1 [compound 5830] (X5-S[pT]PNGL-OH) | 16.5
16 | CCOc1ccc(C(=O)N[C@@H](CO)C(=O)N[C@H](C(=O)N2CCC[C@H]2C(=O)N[C@@H](CC(N)=O)C(=O)NCC(=O)N[C@@H](CC(C)C)C(=O)O)[C@@H](C)OP(=O)(O)O)cc1 [compound 5786] (X9-S[pT]PNGL-OH) | 64.7
17 | CCc1ccc(C(=O)N[C@@H](CO)C(=O)N[C@H](C(=O)N2CCC[C@H]2C(=O)N[C@@H](CC(N)=O)C(=O)NCC(=O)N[C@@H](CC(C)C)C(=O)O)[C@@H](C)OP(=O)(O)O)cc1 [compound 5788, 3G1-S[pT]PNGL (4-ethylbenzoic acid)] ({Benzoyl(4-Et)}-S[pT]PNGL-OH) | 16.5
18 | COc1ccc(C(=O)N[C@@H](CO)C(=O)N[C@H](C(=O)N2CCC[C@H]2C(=O)N[C@@H](CC(N)=O)C(=O)NCC(=O)N[C@@H](CC(C)C)C(=O)O)[C@@H](C)OP(=O)(O)O)cc1 [compound 5754] ({Benzoyl(4-OMe)}-S[pT]PNGL-OH) | 125
19 | CCCCc1ccc(C(=O)N[C@@H](CO)C(=O)N[C@H](C(=O)N2CCC[C@H]2C(=O)N[C@@H](CC(N)=O)C(=O)NCC(=O)N[C@@H](CC(C)C)C(=O)O)[C@@H](C)OP(=O)(O)O)cc1 [compound 5827, 3G2-S[pT]PNGL (4-butylbenzoic acid)] (X1-S[pT]PNGL-OH) | 8.6
20 | CCCc1ccc(C(=O)N[C@@H](CO)C(=O)N[C@H](C(=O)N2CCC[C@H]2C(=O)N[C@@H](CC(N)=O)C(=O)NCC(=O)N[C@@H](CC(C)C)C(=O)O)[C@@H](C)OP(=O)(O)O)cc1 [compound 5826] (X17-S[pT]PNGL-OH) | 10.8
21 | CNc1ccc(C(=O)N[C@@H](CO)C(=O)N[C@H](C(=O)N2CCC[C@H]2C(=O)N[C@@H](CC(N)=O)C(=O)NCC(=O)N[C@@H](CC(C)C)C(=O)O)[C@@H](C)OP(=O)(O)O)cc1 [compound 5792] (NMe4Abz-S[pT]PNGL-OH) | 31.2
22 | CSc1ccc(C(=O)N[C@@H](CO)C(=O)N[C@H](C(=O)N2CCC[C@H]2C(=O)N[C@@H](CC(N)=O)C(=O)NCC(=O)N[C@@H](CC(C)C)C(=O)O)[C@@H](C)OP(=O)(O)O)cc1 [compound 5791] (X4-S[pT]PNGL-OH) | 18.5

Biological target: PLK1 (Homo sapiens (Human), UniProt P53350)
Assay: not given
Conditions: previously identified minimized PBD binding sequences; cited from earlier work

Sequence of PLK1 (P53350 326-603): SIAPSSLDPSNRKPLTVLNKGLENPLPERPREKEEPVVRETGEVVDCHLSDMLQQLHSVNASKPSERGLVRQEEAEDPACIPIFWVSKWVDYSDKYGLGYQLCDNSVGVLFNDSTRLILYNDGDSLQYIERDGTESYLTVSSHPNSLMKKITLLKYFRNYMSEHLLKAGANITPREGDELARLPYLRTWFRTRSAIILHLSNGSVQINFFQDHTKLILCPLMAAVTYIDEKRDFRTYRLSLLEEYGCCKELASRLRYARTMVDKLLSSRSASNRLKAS

Row | Compound | Kd [µM]
23 | CC[C@H](C)[C@H](NC(=O)[C@H](C)NC(=O)[C@@H](NC(=O)[C@H](CO)NC(=O)[C@H](Cc1c[nH]cn1)NC(=O)[C@@H](N)CC(C)C)[C@@H](C)OP(=O)(O)O)C(=O)O [compound 5649, LHS[pT]AI] (H-LHS[pT]AI-OH) | 0.25
